One assay concerns the target MAP kinase p38 (Homo sapiens, UniProt O15264+Q15759+Q16539+P53778). Nature of the assay: In vitro inhibitory concentration against radioligand [3H]SB-202190 binding to CSBP kinase in human monocytic cell line, THP-1.
Assay [1] addresses T1, Polyunsaturated fatty acid 5-lipoxygenase (Rattus norvegicus, UniProt P12527).
T1 sequence (P12527 whole entry): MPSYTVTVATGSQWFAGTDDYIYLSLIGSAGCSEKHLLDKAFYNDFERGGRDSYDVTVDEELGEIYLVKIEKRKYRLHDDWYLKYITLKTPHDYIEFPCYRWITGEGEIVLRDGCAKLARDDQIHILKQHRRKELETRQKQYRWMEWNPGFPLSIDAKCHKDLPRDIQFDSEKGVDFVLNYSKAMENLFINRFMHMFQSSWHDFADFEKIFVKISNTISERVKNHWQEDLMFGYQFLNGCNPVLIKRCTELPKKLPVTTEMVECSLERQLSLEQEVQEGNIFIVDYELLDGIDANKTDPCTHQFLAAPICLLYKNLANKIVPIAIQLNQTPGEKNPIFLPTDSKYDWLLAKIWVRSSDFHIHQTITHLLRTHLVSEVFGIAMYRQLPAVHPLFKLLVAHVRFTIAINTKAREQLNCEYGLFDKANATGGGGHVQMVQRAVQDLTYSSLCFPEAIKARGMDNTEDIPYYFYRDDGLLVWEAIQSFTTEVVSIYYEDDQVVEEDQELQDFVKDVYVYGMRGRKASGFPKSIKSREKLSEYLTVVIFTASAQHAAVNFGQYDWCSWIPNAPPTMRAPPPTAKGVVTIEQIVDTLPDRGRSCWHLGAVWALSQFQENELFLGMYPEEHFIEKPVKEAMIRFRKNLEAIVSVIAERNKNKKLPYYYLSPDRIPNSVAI
Nature of the assay: Inhibitory concentration against 5-lipoxygenase in rat RBL-1 cells. The assay is classed as cell-based.

Assay [2] has as its target T2, Prostaglandin G/H synthase 1 (Ovis aries, UniProt P05979).
T2 sequence (P05979 whole entry): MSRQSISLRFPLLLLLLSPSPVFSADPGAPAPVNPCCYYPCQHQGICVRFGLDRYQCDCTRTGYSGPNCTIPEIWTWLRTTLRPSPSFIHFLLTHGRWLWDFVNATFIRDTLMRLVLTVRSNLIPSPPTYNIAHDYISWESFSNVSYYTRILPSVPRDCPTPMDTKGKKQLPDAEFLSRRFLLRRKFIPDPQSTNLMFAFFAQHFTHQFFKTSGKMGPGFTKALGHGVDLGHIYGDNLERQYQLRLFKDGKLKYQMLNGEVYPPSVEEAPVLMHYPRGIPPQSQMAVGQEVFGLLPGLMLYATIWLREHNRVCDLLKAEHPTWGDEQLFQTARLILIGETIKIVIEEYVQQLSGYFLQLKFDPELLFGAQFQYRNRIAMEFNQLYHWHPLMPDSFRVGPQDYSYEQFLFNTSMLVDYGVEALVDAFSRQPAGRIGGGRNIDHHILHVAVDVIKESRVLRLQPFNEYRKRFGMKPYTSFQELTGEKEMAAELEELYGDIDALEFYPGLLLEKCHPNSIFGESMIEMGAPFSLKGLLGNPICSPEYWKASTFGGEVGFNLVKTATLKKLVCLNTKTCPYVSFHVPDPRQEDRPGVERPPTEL
Nature of the assay: Inhibitory concentration against Prostaglandin H2 synthase 1 (PGHS-1) from ram seminal vesicle.

Another assay relates to Mus musculus. Nature of the assay: In vivo inhibition of LPS-induced TNF production in mice 50 mg/Kg. Format: functional.

pIC50: −log10 of the molar value. A value given as a limit tells only on which side of the number the result lay.

Consider `Cc1cc(-c2c(-c3ccc(F)cc3)ncn2CCCN2CCOCC2)cc(C)n1`, for which, on MAP kinase p38, the IC50 worked out at 25 µM. This counts as double-digit micromolar.

On to `Fc1ccc(-c2ncn(CCCN3CCOCC3)c2-c2ccnc(Cl)c2)cc1`, for which the IC50 on MAP kinase p38 amounted to 1.89 µM.

As for `Fc1ccc(-c2ncn(C3CC3)c2-c2ccncc2)cc1`, the negative-log IC50 (pIC50) is 4.22 in assay [1] and 4.80 in assay [2]. The molecule also gave an IC50 on MAP kinase p38 of 0.08 µM. Besides, the Change in the assay with Mus musculus was -79%.

In turn, `O=S(=O)(CCCn1cnc(-c2ccc(F)cc2)c1-c1ccncc1)c1ccccc1` gave an IC50 on MAP kinase p38 of 1.81 µM. The Change with Mus musculus is reported as -42%.

As to `CN(CCCn1cnc(-c2ccc(F)cc2)c1-c1ccncc1)Cc1ccccc1`, the half-inhibitory concentration (IC50) on MAP kinase p38 is 0.13 µM. For the same molecule, in the assay with Mus musculus, the Change is reported as -28%.

The molecule `Fc1ccc(-c2ncn(CCCN3CCOCC3)c2-c2ccccn2)cc1` had a half-maximal inhibitory concentration (IC50) at MAP kinase p38 of 6.46 µM.

With `FC(F)(F)c1cccc(-c2ncn(CCCN3CCOCC3)c2-c2ccncc2)c1`, the half-inhibitory concentration (IC50) on MAP kinase p38 was found to be 0.46 µM.

As to `CSc1cccc(-c2ncn(CCCN3CCOCC3)c2-c2ccncc2)c1`, the IC50 on MAP kinase p38 stood at 0.29 µM. The Change with Mus musculus was -10%.

As for `C[S+]([O-])CCCn1cnc(-c2ccc(F)cc2)c1-c1ccncc1` (stereo not drawn), the IC50 on MAP kinase p38 is 1.4 µM. Moreover, the Change in the assay with Mus musculus was -43%.

Take `C[S+]([O-])c1cccc(-n2cnc(-c3ccc(F)cc3)c2-c2ccncc2)c1` (stereo not drawn): on MAP kinase p38, the 50% inhibitory concentration (IC50) came to 0.52 µM. For the same molecule, the Change with Mus musculus was -20%.

`Fc1ccc(-c2ncn(CCCN3CCOCC3)c2-c2ccnc3ccccc23)cc1` yielded an IC50 on MAP kinase p38 of 9 µM. The Change in the assay with Mus musculus was -19%.

Turning to `CCOCCCn1cnc(-c2ccc(F)cc2)c1-c1ccncc1`, the IC50 on MAP kinase p38 is 0.1 µM. Moreover, in the assay with Mus musculus, the Change is -29%.

`Clc1ccc(-c2ncn(CCCN3CCOCC3)c2-c2ccncc2)cc1Cl`: the pIC50 in assay [1] and in assay [2] was less than 4.00 throughout. For the same molecule, the IC50 at MAP kinase p38 was found to be 0.32 µM. The Change with Mus musculus is -73%.

At MAP kinase p38, `CC(C)n1cnc(-c2ccc(F)cc2)c1-c1ccncc1` gave a half-inhibitory concentration (IC50) of 0.12 µM. The Change in the assay with Mus musculus is -56%.

For the molecule `CSc1ccc(-n2cnc(-c3ccc(F)cc3)c2-c2ccncc2)cc1`, the IC50 on MAP kinase p38 was found to be 1.47 µM. Moreover, the Change in the assay with Mus musculus was -20%.

On to `CSc1ccc(-c2nc(-c3cccc(F)c3)c(-c3ccncc3)[nH]2)cc1`, for which the IC50 on MAP kinase p38 amounted to 0.34 µM. This counts as sub-micromolar.

The molecule `Fc1ccc(-c2ncn(CCCSc3ccccc3)c2-c2ccncc2)cc1` yielded an IC50 on MAP kinase p38 of 0.08 µM. For the same molecule, the Change in the assay on Mus musculus is -42%.

For the molecule `CSCCCn1cnc(-c2ccc(F)cc2)c1-c1ccncc1`, at MAP kinase p38, the IC50 is 0.19 µM. Besides, the Change with Mus musculus was -49%.

On to `C[S+]([O-])c1ccccc1-n1cnc(-c2ccc(F)cc2)c1-c1ccncc1` (stereo not drawn), for which the half-maximal inhibitory concentration (IC50) at MAP kinase p38 was 0.71 µM. The Change with Mus musculus was 40%.

As to `Fc1ccc(-c2ncn(CCCN3CCOCC3)c2-c2cccnc2)cc1`, the half-maximal inhibitory concentration (IC50) at MAP kinase p38 is 64.7 µM. That is a double-digit micromolar value.

On to `O=C(O)CCCn1cnc(-c2ccc(F)cc2)c1-c1ccncc1`, for which the IC50 at MAP kinase p38 is 3.83 µM. Besides, in the assay with Mus musculus, the Change is listed as -47%.

For `Fc1ccc(-c2ncn(CCCN3CCCCC3)c2-c2ccncc2)cc1`, the IC50 at MAP kinase p38 worked out at 1.17 µM. For the same molecule, in the assay on Mus musculus, the Change is recorded as -26%.

`Fc1ccc(-c2ncn(CCCNCc3ccccc3)c2-c2ccncc2)cc1` returned an IC50 at MAP kinase p38 of 0.07 µM. Further, the Change with Mus musculus is listed as -43%.

As to `CSc1ccc(-c2nc3n(c2-c2ccncc2)CCC3)cc1`, the pIC50 in assay [1] was 5.52; in assay [2], 4.00.

`Nc1cc(-c2c(-c3ccc(F)cc3)ncn2CCCN2CCOCC2)ccn1`: at MAP kinase p38, the IC50 came out at 1.18 µM. Also, the Change in the assay on Mus musculus is listed as -38%.

In the case of `Fc1ccc(-c2nc3n(c2-c2ccncc2)CCS3)cc1`, the pIC50 was 5.00 in assay [1] and 5.27 in assay [2].

As for `Cc1cc(-c2c(-c3ccc(F)cc3)ncn2CCCN2CCOCC2)ccn1`, the half-inhibitory concentration (IC50) at MAP kinase p38 worked out at 3.05 µM. In addition, the Change with Mus musculus is reported as -37%.

On MAP kinase p38, `FC(F)(F)c1cc(-c2ncn(CCCN3CCOCC3)c2-c2ccncc2)cc(C(F)(F)F)c1` yielded a half-maximal inhibitory concentration (IC50) of 114 µM.

Consider `Clc1cccc(-c2ncn(CCCN3CCOCC3)c2-c2ccncc2)c1`, for which, on MAP kinase p38, the concentration for half-maximal inhibition (IC50) worked out at 0.21 µM. The Change in the assay with Mus musculus is recorded as -49%.

`Fc1ccc(-c2ncn(CCCN3CCCC3)c2-c2ccncc2)cc1`: the IC50 on MAP kinase p38 was found to be 0.34 µM. Also, in the assay with Mus musculus, the Change is recorded as -17%.

In turn, `Fc1ccc(-c2ncn(CCN3CCOCC3)c2-c2ccncc2)cc1` yielded an IC50 on MAP kinase p38 of 0.76 µM. Besides, the Change in the assay with Mus musculus is listed as -25%.

For the molecule `CSc1cccc(-n2cnc(-c3ccc(F)cc3)c2-c2ccncc2)c1`, the half-maximal inhibitory concentration (IC50) on MAP kinase p38 is 0.12 µM. Further, the Change with Mus musculus is -23%.

`CSc1ccccc1-n1cnc(-c2ccc(F)cc2)c1-c1ccncc1` gave a half-inhibitory concentration (IC50) at MAP kinase p38 of 0.08 µM. The Change in the assay on Mus musculus was 29%.

As for `[O-][S+](CCCn1cnc(-c2ccc(F)cc2)c1-c1ccncc1)c1ccccc1` (stereo not drawn), the IC50 at MAP kinase p38 was determined as 0.63 µM.

The molecule `Fc1ccc(-c2ncn(CCCOc3ccccc3)c2-c2ccncc2)cc1` came in with a half-maximal inhibitory concentration (IC50) on MAP kinase p38 of 0.07 µM. The Change with Mus musculus is recorded as -14%.

`Fc1ccc(-c2ncn(CCCCN3CCOCC3)c2-c2ccncc2)cc1` gave an IC50 on MAP kinase p38 of 0.48 µM. For the same molecule, in the assay on Mus musculus, the Change was -40%.

At MAP kinase p38, `CCN(CC)CCCn1cnc(-c2ccc(F)cc2)c1-c1ccncc1` yielded a 50% inhibitory concentration (IC50) of 0.27 µM. The Change in the assay on Mus musculus is listed as -21%.

As to `Cc1cc(-c2[nH]c(-c3ccc([S+](C)[O-])cc3)nc2-c2cccc(F)c2)ccn1` (stereo not drawn), the IC50 on MAP kinase p38 stood at 0.37 µM. In addition, in the assay on Mus musculus, the Change is given as -64%.

For the molecule `COC(=O)CCCn1cnc(-c2ccc(F)cc2)c1-c1ccncc1`, on MAP kinase p38, the IC50 came to 0.29 µM. In the assay with Mus musculus, the Change is -33%.

The molecule `FC(F)(F)c1ccc(-c2ncn(CCCN3CCOCC3)c2-c2ccncc2)cc1` came in with an IC50 on MAP kinase p38 of 2.98 µM.

On to `CC(C)(C)n1cnc(-c2ccc(F)cc2)c1-c1ccncc1`, for which the concentration for half-maximal inhibition (IC50) on MAP kinase p38 amounted to 4.74 µM. The Change in the assay with Mus musculus is -35%.

At MAP kinase p38, `C[S+]([O-])c1ccc(-n2cnc(-c3ccc(F)cc3)c2-c2ccncc2)cc1` (stereo not drawn) yielded a half-maximal inhibitory concentration (IC50) of 0.75 µM.

With `C[S+]([O-])c1cccc(-c2ncn(CCCN3CCOCC3)c2-c2ccncc2)c1` (stereo not drawn), the IC50 on MAP kinase p38 was found to be 4.95 µM.

For `CS(=O)(=O)CCCn1cnc(-c2ccc(F)cc2)c1-c1ccncc1`, at MAP kinase p38, the half-maximal inhibitory concentration (IC50) came out at 0.51 µM.

With `NCCCn1cnc(-c2ccc(F)cc2)c1-c1ccncc1`, the IC50 on MAP kinase p38 came to 0.15 µM.

`Fc1ccc(-c2nc[nH]c2-c2ccncc2)cc1`: the negative logarithm of the IC50 (pIC50) in assay [1] and in assay [2] was less than 4.00 in each case. This molecule displayed a half-inhibitory concentration (IC50) on MAP kinase p38 of 0.21 µM. Moreover, the Change with Mus musculus is given as -82%.

With `C[S+]([O-])c1ccc(-c2nc(-c3ccc(F)cc3)c(-c3ccncc3)[nH]2)cc1` (stereo not drawn) [SB-203580], the Change with Mus musculus is -83%.

As for `Fc1ccc(-c2ncn(CCCN3CCOCC3)c2-c2ccncc2)cc1` [SB-210313], in assay [1], the negative logarithm of the IC50 (pIC50) was less than 4.00. In addition, the Change in the assay on Mus musculus is -55%.

The term IC50 denotes the point on the concentration scale where inhibition reaches its midpoint. Low readings indicate greater potency, high ones weaker potency. A word on the pIC50: it is the IC50 on a negative log10 scale, so that one unit is a factor of ten.

Source of the values: ChEMBL document CHEMBL1129676, “1-substituted 4-aryl-5-pyridinylimidazoles: a new class of cytokine suppressive drugs with low 5-lipoxygenase and cyclooxygenase inhibitory potency” (J Med Chem, 1996).
